Assay results published in PMC6054100, “Exploring the chemical space of the lysine-binding pocket of the first kringle domain of hepatocyte growth factor/scatter factor (HGF/SF) yields a new class of inhibitors of HGF/SF-MET binding” (Chemical Science, 2015).

Legend:
[1] = molecular target: T1, NK1 (Homo sapiens, UniProt P14210); assay: SPR steady-state binding to immobilized NK1 (Biacore T100); design: made in house; host or cells: Pichia pastoris
Protocol: Binding constants of piperazine-like compounds and fragments were determined using a Biacore T100 instrument. NK1 was immobilized on a CM5 chip by amine coupling to a density of 6000 RU. Compounds were stored as 100 mM stock solutions in water and serial dilutions were prepared in the running buffer (PBS pH 7.4, 0.05% Tween 20). The compound solutions were injected onto the surface of the chip at a flow rate of 30 μL min^–1, contact time was 1 min and dissociation time 1 min. Sensorgrams were analysed using the Biacore T100 evaluation software and the binding constants determined.

[2] = molecular target: T1, NK1; assay: SPR fragment library screening against NK1; assay type: binding; design: made in house; host or cells: Pichia pastoris; settings: for Ranking order: based on fragment screening, rank among the 71 NK1 hits (ESI Tables S3-S7); for SPR response: normalised relative value against NK1
Protocol: Supplementary Materials and Methods
Fragment library screening and data analysis
Met567 (soluble truncated f ragment of the MET ectodomain, residues 25- 567), NK1 and t he SPH domain were immobilized on CM5 chips by amine coupling. NK1 was diluted into 10 m M phosphate pH 7.0 and the SPH domain into 10 mM acetate pH 5.5 to a final concentration of 2.5 μM and 1 μM, respectively, for coupling. The immobilization wizard within the Biacore T100 software was set to “aim for immobiliz ed level” of 8000 RU to achieve complete saturation of the chip surface.
W ith minor deviations, the procedure and conditions outlined below were used f or a ll screening s of an in-house fragment library of 1338 members against individual target proteins. The running buffer was PBS pH 7.4, 0.05% Tween 20, 0.25% DMSO (1% DMSO for Met567). Fragments were stored as 100 mM stock solutions in DMSO. Prior to screening, fragment samples were diluted to 500 μM (1 mM f or Met567) in running buffer.
Screening was performed in 96- we ll plates at a flow rate of 30 μl min-1 with 1 min sample injection f ollowed by dissociation f or 1 min and surf ace regeneration using 1 M NaCl f or 30 […]
post-regeneration baseline exceeded the pre- sample baseline by more than 10 RU, a second regeneration cycle with 50% ethylene glycol was used. In order to be able to correct for small variations in DMSO concentration between samples, eight solvent samples ranging from 0.012 to 1.5% DMSO were injected every 40th cycle. To monitor the binding capacity of the NK1, SPH and Met567 surfaces throughout the screening, injections of 500 μM HEPES (NK1), 0.25 μM Met567 (SPH) and 0.2 μM NK1 and 1% DMSO (Met567) were carried out every 40th cycle. The flow cell temperature was 25°C. NK1 and the SPH domain were immobilized on the same chip (channels 2 and 3 respectively) and were theref ore screened in parallel. Met567 was screened separately and results are published in an accompanying paper (W in t er et al. 2015, in revision).
For data analysis, fir st, all responses were reference and solvent corrected. 1 Next, equilibrium binding for every fragment was determined and hits established by applying several filters: sensorgram shape, upper and lower threshold. Typical sensorgrams from fragment screening show “square curves” in SPR due to the fast on and off rates and fragments not showing this response were discarded from further analysis. Binding levels are represented as response units (RU) but the SPR signal is a convolution of multiple parameters including target coupling density, target -binding activity, target molecular weight and molecular weight of each injected fragment. To be able to identif y hits accurately and to be able to compare responses between different plates and targets, data were normalised against these factors. First the theoretical maximum response for each fragment was calculated using equation 1:
RRmmm = CCCCCCCC ddCdCdd× MMffmCmdCd (Equation 1)
This RUmax value diff ers for each protein target because it depends on the molecular weight of the protein and the amount of protein immobilized on the chip (coupling density). The RUmax was then used to calculate the normalised relative SPR response:
NNNNNNNNNN NNNNr NrN SSR NNNrNrNN = RRcppppcppc× 100% (Equation 2) […]
fragment should cause upon binding. 100% response would be 1:1 binding wit h levels above 100% implying over-stoichiometric binding. […]
Fragment library screening to identify small molecule binders

[3] = molecular target: T2, lysine-binding pocket of the kringle domain of NK1 (Homo sapiens, UniProt P14210); assay: Soaking into NK1 apo crystals, X-ray crystallography; settings: soaked into NK1 apo crystals
T2 construct: made in house; host or cells: Pichia pastoris
Protocol: Next, three classes of piperazine-like sulphonated compounds containing piperazine ((H)EPPS and PIPES), morpholine (MES and MOPS), or cyclohexane (CHES and CAPS) rings were studied for their binding to NK1 (Table 1), alongside another five sulphonated compounds selected from a chemical fragment library (Table 2).
NK1 buffered in 150 mM NaCl, 50 mM Tris, pH 7.5 (apo-NK1 and all soaking experiments) was concentrated to ∼20 mg mL^–1 using a Vivaspin device with a 10 kDa cut-off membrane (Sartorius Biolab). Crystallisation was carried out in Linbro plates by the vapour diffusion hanging drop technique using a protein : precipitant ratio of 1 : 1 at 20 °C. Previously NK1 has been crystallised in 18% PEG 4000, 200 mM sodium acetate and 150 mM Tris pH 8.5 as precipitant.[19] Here final crystallisation conditions (19% PEG 4000, 200 mM sodium acetate and 150 mM Tris pH 7.5) were optimised around those to achieve high-resolution apo structure. Details of compound soaking, X-ray data collection and structure determination are given in the ESI ^† section of the manuscript. […]
For this, 1 M stock solutions were prepared in DMSO (fragments) or water (piperazine- like compounds) and the pH adjusted to a value within their buffering range with either HCl or NaOH. The seven piperazine- like compounds and their respective pH are: HEPES (pH 7.6), (H)EPPS (pH 7.4), PIPES (pH 7.0), MES (pH 5.8), MOPS (pH 7.2), CHES (pH 8.6) and CAPS (pH 9.7). Secondary stocks of the compounds at 50 mM were prepared in the […]
respective mother liquor and soaked for up to 48 hours.
MB605 was solubilised in 50% DMSO at 20 mM concentration (1% f inal DMSO concentration in the drop) in order to minimize adverse effects of DMSO on the protein crystal. 25% ethylene glycol was used as the cryoprotective agent.
X-ray data collection and processing
X-ray datasets were collected either at the European Synchrotron Radiation Facility (ESRF, Grenoble, France), the Diamond Light Source (DLS, Oxford, UK) or in-house using the X8 PROTEUM (Bruker AXS) at the Department of Biochemistry, University of Cambridge.
Datasets of at least 180° were collected. Raw data collected at synchrotrons were integrated, merged, scaled and reduced using DENZO and […].2 Raw data […]
collected in- house were integrated, merged, scaled and reduced using the PROTEUM 2 software package .3 The CCP4 suite of crystallographic programs (Collaborative

[4] = molecular target: T1, NK1; assay: 1H-15N TROSY-HSQC NMR chemical shift titration of 15N-labelled NK1; assay type: binding; design: made in house; host or cells: Pichia pastoris; settings: steady-state binding constants; piperazine-like compounds; 0.18 mM NK1, pH 7.2, 310 K; read-out: KD in NMR
Protocol: Ligand screening was performed by monitoring the chemical shift variations in ^1H-^15N TROSY-HSQC NMR spectra of the uniformly [^15N]-labelled NK1 protein (Fragai et al. 2015, in prep.) upon the addition of increasing concentrations of the investigated compounds.[43]–[45] The experiments were performed using 0.18 mM protein samples in 25 mM Tris, 100 mM NaCl and 0.01% sodium azide, at pH 7.2 with 10% D2O. The spectra were recorded at 310 K on a Bruker AVANCE 900 MHz spectrometer equipped with a TXI cryo-probe. Sample solutions were prepared from 1 M or 100 mM DMSO stock solutions of the ligands. The dissociation constant values (KD) were calculated by plotting the weighted average ^1H and ^15N chemical shifts of the residues experiencing significant variations as a function of ligand concentration added during the titration and considering the one site binding model.[46]

[5] = steady-state binding constant from SPR (ESI Tables S3-S7), read-out: KD
[6] = fragments 500 μM (ESI Tables S3-S7)
[7] = steady-state binding constant from SPR, fragment hits (Table 3, text), read-out: KD
[8] = initial fragment screening, fragments 500 μM (Table 3)

T1 sequence (P14210 32-210 isoform P14210-6 limits assumed): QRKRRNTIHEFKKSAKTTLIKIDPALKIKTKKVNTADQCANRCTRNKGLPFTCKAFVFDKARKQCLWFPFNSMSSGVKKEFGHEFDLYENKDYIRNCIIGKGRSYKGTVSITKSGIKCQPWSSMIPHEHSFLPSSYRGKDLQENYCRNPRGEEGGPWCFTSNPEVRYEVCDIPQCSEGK
T2 sequence (P14210 32-210 isoform P14210-6 limits assumed): as above

| Compound | Kd [1, 5] [µM] | Ranking order [2] | SPR response [2, 6] [%] | Kd [1, 7] [µM] | SPR response [2, 8] [%] | binding in the lysine-binding pocket (crystal structure) [3] | Kd ([1]; KD) [µM] | Kd [4] [µM] | Kd ([1]; steady-state binding constants, piperazine-like compounds, immobilized NK1, PBS pH 7.4, read-out: KD in SPR) [µM] |
| --- | --- | --- | --- | --- | --- | --- | --- | --- | --- |
| CC(=O)Nc1ccccc1F [MB1267] | 1600 | 16 | 90 | – | – | – | – | – | – |
| NC(=S)N1CCOCC1 [MB1082] | – | 43 | 53 | 370 ± 40 | 53 | – | – | – | – |
| Cc1nn(C)c(C)c1N [MB893] | 1500 | 36 | 59 | – | – | – | – | – | – |
| Cc1cccc(C(N)=O)c1C [MB1284] | – | 15 | 90 | 860 ± 70 | 90 | – | – | – | – |
| Cc1ccsc1CN [MB1237] | 4200 | 4 | 118 | – | – | – | – | – | – |
| NC(=S)c1ncc(C(F)(F)F)cc1N1CCCC1 [MB1218] | 17300 | 37 | 57 | – | – | – | – | – | – |
| Cc1cc(N)n(C)n1 [MB935] | 1000 | 41 | 54 | – | – | – | – | – | – |
| Cc1ccc(C(=O)O)cc1Cl [MB1306] | 2500 | 21 | 77 | – | – | – | – | – | – |
| N#Cc1ccsc1N [MB915] | 1600 | 24 | 71 | – | – | – | – | – | – |
| Nc1ncccn1 [CA023] | – | 46 | 52 | 770 ± 60 | 52 | – | – | – | – |
| Cc1cc(C)on1 [MB1299] | 2200 | 2 | 131 | – | – | – | – | – | – |
| O=S(=O)(O)CCCO [2FA, 3-Hydroxypropane-1-sulphonic acid] | – | – | – | – | – | bound in the lysine-binding pocket | – | – | – |
| CNCc1ccncc1 [MB1003] | 6400 | 6 | 107 | – | – | – | – | – | – |
| Cc1ccc(C#N)c(=O)[nH]1 [MB1260] | 5600 | 8 | 105 | – | – | – | – | – | – |
| Nc1ccc(OC(F)F)cc1 [MB1293] | 5000 | 22 | 72 | – | – | – | – | – | – |
| Nc1ccncc1 [MB404] | 2800 | 5 | 118 | – | – | – | – | – | – |
| c1ccc2[nH]ncc2c1 [AT0381] | – | 44 | 53 | – | 53 | – | 740 ± 60 | – | – |
| Nc1ccc(F)cc1F [MB396] | 1100 | 18 | 83 | – | – | – | – | – | – |
| Cc1nc(CC(=O)O)cs1 [MB895] | – | 45 | 53 | 430 ± 50 | 53 | – | – | – | – |
| CNCc1cccnc1 [MB1290] | 1640 | 9 | 102 | – | – | – | – | – | – |
| Cc1nc(C(N)=S)cs1 [MB1252] | 5200 | 10 | 101 | – | – | – | – | – | – |
| Cc1cc(Cl)ccc1C(=O)O [MB1318] | – | 33 | 61 | 360 ± 40 | 61 | – | – | – | – |
| O=C(O)c1coc2c1C(=O)CCC2 [MB417] | – | 17 | 87 | 420 ± 40 | 87 | – | – | – | – |
| COC(=O)c1ccccc1F [MB1253] | 2900 | 11 | 98 | – | – | – | – | – | – |
| O=S(=O)(O)CCN1CCN(CCS(=O)(=O)O)CC1 [PIPES, reference compound] | – | – | – | – | – | – | – | 45900 ± 4700 | 26600 ± 600 |
